{"source": "paper PMC9230573", "about": "(Frontiers in Pharmacology, 2022)", "biological_target": "human CaV2.2 (α1B, β3, α2δ1) (Homo sapiens, UniProt Q00975)", "sequence (Q00975 whole entry, looked up)": "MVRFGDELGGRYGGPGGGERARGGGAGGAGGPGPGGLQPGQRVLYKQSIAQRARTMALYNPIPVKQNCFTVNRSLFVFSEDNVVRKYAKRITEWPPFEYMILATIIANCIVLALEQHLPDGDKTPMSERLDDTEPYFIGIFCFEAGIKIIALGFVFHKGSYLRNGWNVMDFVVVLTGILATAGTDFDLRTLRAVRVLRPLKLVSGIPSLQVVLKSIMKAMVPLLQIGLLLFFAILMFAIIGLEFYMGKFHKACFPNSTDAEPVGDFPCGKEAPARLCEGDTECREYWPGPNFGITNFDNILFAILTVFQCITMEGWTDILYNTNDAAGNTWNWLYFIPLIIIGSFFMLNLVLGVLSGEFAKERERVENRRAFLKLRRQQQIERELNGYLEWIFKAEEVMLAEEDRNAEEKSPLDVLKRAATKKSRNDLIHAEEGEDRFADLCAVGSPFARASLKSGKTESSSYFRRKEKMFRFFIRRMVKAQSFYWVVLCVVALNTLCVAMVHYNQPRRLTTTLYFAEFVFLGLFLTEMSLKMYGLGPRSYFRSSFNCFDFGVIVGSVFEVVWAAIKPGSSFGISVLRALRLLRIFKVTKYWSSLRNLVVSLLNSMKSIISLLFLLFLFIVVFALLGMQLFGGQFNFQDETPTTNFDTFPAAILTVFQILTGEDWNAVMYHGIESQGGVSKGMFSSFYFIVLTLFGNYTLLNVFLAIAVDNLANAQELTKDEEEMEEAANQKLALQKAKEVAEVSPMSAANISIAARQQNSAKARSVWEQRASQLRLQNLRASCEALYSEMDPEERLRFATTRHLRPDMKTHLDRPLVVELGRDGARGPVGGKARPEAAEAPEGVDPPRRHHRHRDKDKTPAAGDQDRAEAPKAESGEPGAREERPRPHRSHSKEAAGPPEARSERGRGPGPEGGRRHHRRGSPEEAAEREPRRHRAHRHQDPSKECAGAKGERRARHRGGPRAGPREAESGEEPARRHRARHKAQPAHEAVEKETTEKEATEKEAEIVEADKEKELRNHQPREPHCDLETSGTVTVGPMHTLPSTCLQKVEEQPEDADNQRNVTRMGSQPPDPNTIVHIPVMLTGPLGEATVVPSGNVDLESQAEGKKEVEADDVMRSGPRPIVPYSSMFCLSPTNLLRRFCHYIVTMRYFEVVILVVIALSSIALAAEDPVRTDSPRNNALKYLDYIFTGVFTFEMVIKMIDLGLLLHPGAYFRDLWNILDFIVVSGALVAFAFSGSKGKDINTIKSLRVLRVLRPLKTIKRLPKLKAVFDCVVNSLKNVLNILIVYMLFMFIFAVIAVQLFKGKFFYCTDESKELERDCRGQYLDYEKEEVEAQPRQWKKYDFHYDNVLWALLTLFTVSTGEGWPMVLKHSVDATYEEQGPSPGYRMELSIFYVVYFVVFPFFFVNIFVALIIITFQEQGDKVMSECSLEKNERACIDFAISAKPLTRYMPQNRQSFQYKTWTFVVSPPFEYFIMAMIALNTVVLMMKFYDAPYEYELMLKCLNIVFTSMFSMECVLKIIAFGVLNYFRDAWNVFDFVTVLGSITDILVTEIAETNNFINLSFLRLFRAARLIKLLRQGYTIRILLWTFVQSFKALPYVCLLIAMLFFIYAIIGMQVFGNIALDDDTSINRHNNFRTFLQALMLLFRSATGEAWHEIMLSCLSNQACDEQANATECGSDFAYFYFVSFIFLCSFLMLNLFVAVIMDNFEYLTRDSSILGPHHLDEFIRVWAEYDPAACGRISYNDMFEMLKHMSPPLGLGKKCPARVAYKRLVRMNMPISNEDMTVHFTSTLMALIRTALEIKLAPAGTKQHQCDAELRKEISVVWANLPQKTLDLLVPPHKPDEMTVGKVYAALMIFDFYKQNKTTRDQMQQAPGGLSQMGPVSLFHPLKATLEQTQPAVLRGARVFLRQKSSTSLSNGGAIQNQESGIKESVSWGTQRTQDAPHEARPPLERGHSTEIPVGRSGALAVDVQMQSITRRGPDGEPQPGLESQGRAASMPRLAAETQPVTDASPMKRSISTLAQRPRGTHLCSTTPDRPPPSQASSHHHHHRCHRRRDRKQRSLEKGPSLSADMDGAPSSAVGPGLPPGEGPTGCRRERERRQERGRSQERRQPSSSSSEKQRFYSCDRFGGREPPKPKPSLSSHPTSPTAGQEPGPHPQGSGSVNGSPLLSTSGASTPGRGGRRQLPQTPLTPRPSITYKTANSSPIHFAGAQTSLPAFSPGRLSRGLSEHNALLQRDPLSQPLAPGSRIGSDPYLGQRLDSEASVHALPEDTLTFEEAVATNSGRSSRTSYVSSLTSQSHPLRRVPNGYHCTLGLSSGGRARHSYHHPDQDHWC", "experiment": "cell-based", "note": "Where a SMILES comes first, the peptide text is derived from it. Bridges are numbered along the chain shown (N, C = ends).", "data": [{"smiles": "CC[C@H](C)[C@@H]1NC(=O)[C@@H]2CCCN2C(=O)[C@@H]2CSSC[C@H](NC(=O)[C@@H](N)CC(N)=O)C(=O)N[C@@H](CSSC[C@@H](C(N)=O)NC(=O)[C@H](CC(N)=O)NC(=O)[C@H](Cc3ccccc3)NC(=O)[C@H](CCCNC(=N)N)NC(=O)[C@H](CO)NC(=O)[C@H](Cc3ccc(O)cc3)NC(=O)[C@H](CC(=O)O)NC1=O)C(=O)N[C@@H](CCSC)C(=O)N[C@@H](Cc1ccccc1)C(=O)N[C@@H](Cc1c[nH]cn1)C(=O)N[C@@H]([C@@H](C)O)C(=O)N2", "note": "[Vt1.27] (H-NCCMFHTCPIDYSRFNC-NH2; disulfide 2-8, 3-17)", "values": [{"measurement": "IC50", "result": 398, "unit": "nM"}, {"measurement": "half-maximum inactivation (V0.5, inact)", "result": "−69.0 ± 1.0", "unit": "mV"}, {"measurement": "shift of half-maximum inactivation (V0.5, inact)", "result": 3, "unit": "mV"}, {"measurement": "τoff (off kinetics of inhibition)", "result": "2.7 ± 0.15", "unit": "s"}, {"measurement": "τon (on kinetics of inhibition)", "result": "4.5 ± 0.48", "unit": "s"}]}]}
